Measurements: patent US9730445B2, “Herbicidal compositions comprising 4-amino-3-chloro-5-fluoro-6-(4-chloro-2-fluoro-3-methoxyphenyl) pyridine-2-carboxylic acid or a derivative thereof and fungicides” (DOW AGROSCIENCES LLC, priority 2013, dated 2017)
Values joined by “and” are separate entries in the source; they are usually repeats but may differ in a detail not shown here. Equal values may be shown once.

Experiments:
CYPIR = test: Postemergence foliar-applied weed control, direct-seeded rice (greenhouse); format: in vivo, Cyperus iria L. (rice flatsedge); details: 21 DAA
CYPRO = test: In-water applied weed control, transplanted paddy rice (greenhouse); format: in vivo, Cyperus rotundus L. (purple nutsedge); details: 19 DAA
Protocol: Weed seeds or nutlets of the desired test plant species were planted in puddled soil (mud) prepared by mixing a shredded, non-sterilized mineral soil (50.5 percent silt, 25.5 percent clay, and 24 percent sand, with a pH of about 7.6 and an organic matter content of about 2.9 percent) and water at a 1:1 volumetric ratio. The prepared mud was dispensed in 365 mL aliquots into 16-ounce (oz.) non-perforated plastic pots with a surface area of 86.59 square centimeters (cm^2) leaving a headspace of 3 centimeters (cm) in each pot. Rice seeds were planted in Sun Gro MetroMix® 306 planting mixture, which typically has a pH of 6.0 to 6.8 and an organic matter content of about 30 percent, in plastic plug trays. Seedlings at the second or third leaf stage of growth were transplanted into 860 mL of mud contained in 32-oz. non-perforated plastic pots with a surface area of 86.59 cm^2 4 days prior to herbicide application. The paddy was created by filling the headspace of the pots with 2.5 to 3 cm of water. When required to ensure good germination and healthy plants, a fungicide treatment and/or other chemical or physical treatment was applied. The plants were grown for 4-22 days in a greenhouse with an approximate 14 hour (h) photoperiod which was maintained at about 29° C. during the day and about 26° C. during the night. Nutrients were added as Osmocote® (17:6:10, N:P:K+minor nutrients) at 2 g per cup. Water was added on a regular basis to maintain the paddy flood, and supplemental lighting was provided with overhead metal halide 1000-Watt lamps as necessary. The plants were employed for testing when they reached the first through fourth true leaf stage.
Treatments consisted of the acid or esters of 4-amino-3-chloro-5-fluoro-6-(4-chloro-2-fluoro-3-methoxy-phenyl)pyridine-2-carboxylic acid (compound A) each formulated as an SC (suspension concentrate) and various fungicidal components alone and in combination. Forms of compound A were applied on an acid equivalent basis.
Treatment requirements for each compound or fungicidal component were calculated based upon the rates being tested, the concentration of active ingredient or acid equivalent in the formulation, an application volume of 2 mL per component per pot, and an application area of 86.59 cm^2 per pot.
For formulated compounds, a measured amount was placed in an individual 100 or 200 mL glass vial and was dissolved in a volume of 1.25% (v/v) Agri-Dex® crop oil concentrate to obtain application solutions.
For technical grade compounds, a weighed amount was placed in an individual 100 to 200 mL glass vial and dissolved in a volume of acetone to obtain concentrated stock solutions.
Applications were made by injecting with a pipetter appropriate amounts of the application solutions, individually and sequentially, into the aqueous layer of the paddy. Control plants were treated in the same manner with the solvent blank. Applications were made so that all treated plant material received the same concentrations of acetone and crop oil concentrate.
The treated plants and control plants were placed in a greenhouse as described above and water was added as needed to maintain a paddy flood. After approximately 3 weeks the condition of the test plants as compared with that of the untreated plants was determined visually and scored on a scale of 0 to 100 percent where 0 corresponds to no injury or growth inhibition and 100 corresponds to complete kill.
Colby's equation was used to determine the herbicidal effects expected from the mixtures (Colby, S. R. Calculation of the synergistic and antagonistic response of herbicide combinations. Weeds 1967, 15, 20-22.).
The following equation was used to calculate the expected activity of mixtures containing two active ingredients, A and B: Expected=A+B−(A×B/100)

COc1c(Cl)ccc(-c2nc(C(=O)OCc3ccccc3)c(Cl)c(N)c2F)c1F [Compound A Benzyl Ester]
Visual Weed Control (%) - 21 DAA CYPIR Obs (CYPIR; r23-24 ester 16/32 g ae/ha alone, r25 pyroquilon 925 g ai/ha alone, r26-27 ester 16/32 + 925): 85% and 99%
Visual Weed Control (%) - 21 DAA CYPIR Obs (CYPIR; r26-27 ester 16/32 g ae/ha alone, r28-29 isoprothiolane 266/533 g ai/ha alone, r30-33 ester 16/32 at each of 266, 533): 85% and 99%
Visual Weed Control (%)—21 DAA CYPIR Obs (CYPIR; r29-30 ester 8/16 g ae/ha alone, r31-33 kasugamycin 17.5/35/70 g ai/ha alone, r34-39 ester 8/16 at each of 17.5, 35, 70): 50% and 70%
Visual Weed Control (%)—21 DAA CYPIR Obs (CYPIR; r45 ester 8 g ae/ha alone, r46-48 hexaconazole 25/50/100 g ai/ha alone, r49-51 ester 8 + 25/50/100): 35%
Visual Weed Control (%) - 19 DAA CYPRO Obs (CYPRO; Compound A Benzyl Ester 8 g ae/ha): 20%
Visual Weed Control (%) - 19 DAA CYPRO Obs (CYPRO; Compound A Benzyl Ester 16 g ae/ha): 88%
Visual Weed Control (%) - 19 DAA CYPRO Obs (CYPRO; Compound A Benzyl Ester 32 g ae/ha): 87%
